Measured values published in ChEMBL document CHEMBL4396913, “Synthesis and biological evaluation of hybrid quinolone-based quaternary ammonium antibacterial agents” (Eur J Med Chem, 2019).
In brackets after ≈: the same amount, converted by molar mass.

Legend:
HEK293 [1] = assay: Cytotoxicity against human HEK293 cells assessed as changes in cell morphology upto 20 uM incubated for 72 hrs by MTT assay; format: cell-based; settings: hek293, 72 h
Pseudomonas aeruginosa [2] = assay: Antibacterial activity against Pseudomonas aeruginosa ATCC 9027 cultured in MH medium assessed as reduction in bacterial growth incubated for 48 hrs by microbroth dilution method; format: functional; settings: ATCC 9027, 48 h
Bacillus spizizenii [3] = assay: Bactericidal activity against Bacillus subtilis ATCC 6633 cultured in MH medium assessed as reduction in bacterial survival incubated for 48 hrs by microbroth dilution method; format: functional; settings: ATCC 6633, 48 h
Pseudomonas aeruginosa [4] = assay: Bactericidal activity against Pseudomonas aeruginosa ATCC 9027 cultured in MH medium assessed as reduction in bacterial survival incubated for 48 hrs by microbroth dilution method; format: functional; settings: ATCC 9027, 48 h
[5] = Lipophilicity, log k of the compound at 100 ug/ml by micellar electrokinetic chromatography; format: physicochemical
Serratia marcescens [6] = assay: Bactericidal activity against Serratia marcescens ATCC 12795 cultured in MH medium assessed as reduction in bacterial survival incubated for 48 hrs by microbroth dilution method; format: functional; settings: ATCC 12795, 48 h
Escherichia coli [7] = assay: Antibacterial activity against Escherichia coli ATCC 8739 cultured in MH medium assessed as reduction in bacterial growth incubated for 48 hrs by microbroth dilution method; format: functional; settings: ATCC 8739, 48 h
Enterococcus hirae = assay: Antibacterial activity against Enterococcus hirae ATCC 1052 cultured in BHI medium assessed as reduction in bacterial growth incubated for 48 hrs by microbroth dilution method; format: functional; settings: ATCC 1052, 48 h
Streptococcus pneumoniae = assay: Antibacterial activity against Streptococcus pneumoniae cultured in MH medium assessed as reduction in bacterial growth incubated for 48 hrs by microbroth dilution method; format: functional
Staphylococcus aureus [8] = assay: Antibacterial activity against Staphylococcus aureus ATCC 6538 cultured in MH medium assessed as reduction in bacterial growth incubated for 48 hrs by microbroth dilution method; format: functional; settings: ATCC 6538, 48 h
HEK293 [9] = assay: Cytotoxicity against human HEK293 cells assessed as cell viability upto 20 uM incubated for 72 hrs by MTT assay; format: cell-based; settings: hek293, 72 h
[10] = system: Staphylococcus epidermidis; assay: Bactericidal activity against methicillin resistant Staphylococcus epidermidis ATCC 13199 cultured in MH medium assessed as reduction in bacterial survival incubated for 48 hrs by microbroth dilution method; format: functional; settings: ATCC 13199, 48 h
Staphylococcus aureus [11] = assay: Bactericidal activity against Staphylococcus aureus ATCC 6538 cultured in MH medium assessed as reduction in bacterial survival incubated for 48 hrs by microbroth dilution method; format: functional; settings: ATCC 6538, 48 h
Proteus vulgaris [12] = assay: Bactericidal activity against Proteus vulgaris NCTC 4635 cultured in MH medium assessed as reduction in bacterial survival incubated for 48 hrs by microbroth dilution method; format: functional; settings: NCTC 4635, 48 h
Proteus vulgaris [13] = assay: Antibacterial activity against Proteus vulgaris NCTC 4635 cultured in MH medium assessed as reduction in bacterial growth incubated for 48 hrs by microbroth dilution method; format: functional; settings: NCTC 4635, 48 h
Staphylococcus aureus [14] = assay: Bactericidal activity against methicillin resistant Staphylococcus aureus 6347 cultured in MH medium assessed as reduction in bacterial survival incubated for 48 hrs by microbroth dilution method; format: functional; settings: Staphylococcus aureus, 6347, 48 h
[15] = system: Staphylococcus epidermidis; assay: Antibacterial activity against Staphylococcus epidermidis ATCC 14990 cultured in MH medium assessed as reduction in bacterial growth incubated for 48 hrs by microbroth dilution method; format: functional; settings: ATCC 14990, 48 h
Serratia marcescens [16] = assay: Antibacterial activity against Serratia marcescens ATCC 12795 cultured in MH medium assessed as reduction in bacterial growth incubated for 48 hrs by microbroth dilution method; format: functional; settings: ATCC 12795, 48 h
Staphylococcus aureus [17] = assay: Antibacterial activity against methicillin resistant Staphylococcus aureus 6347 cultured in MH medium assessed as reduction in bacterial growth incubated for 48 hrs by microbroth dilution method; format: functional; settings: Staphylococcus aureus, 6347, 48 h
Staphylococcus aureus [18] = assay: Bactericidal activity against methicillin resistant Staphylococcus aureus N315 cultured in MH medium assessed as reduction in bacterial survival incubated for 48 hrs by microbroth dilution method; format: functional; settings: N315, 48 h
Escherichia coli [19] = assay: Bactericidal activity against Escherichia coli ATCC 8739 cultured in MH medium assessed as reduction in bacterial survival incubated for 48 hrs by microbroth dilution method; format: functional; settings: ATCC 8739, 48 h
Staphylococcus aureus [20] = assay: Antibacterial activity against methicillin resistant Staphylococcus aureus N315 cultured in MH medium assessed as reduction in bacterial growth incubated for 48 hrs by microbroth dilution method; format: functional; settings: N315, 48 h
[21] = system: Staphylococcus epidermidis; assay: Bactericidal activity against Staphylococcus epidermidis ATCC 14990 cultured in MH medium assessed as reduction in bacterial survival incubated for 48 hrs by microbroth dilution method; format: functional; settings: ATCC 14990, 48 h
Bacillus spizizenii [22] = assay: Antibacterial activity against Bacillus subtilis ATCC 6633 cultured in MH medium assessed as reduction in bacterial growth incubated for 48 hrs by microbroth dilution method; format: functional; settings: ATCC 6633, 48 h
[23] = system: Staphylococcus epidermidis; assay: Antibacterial activity against methicillin resistant Staphylococcus epidermidis ATCC 13199 cultured in MH medium assessed as reduction in bacterial growth incubated for 48 hrs by microbroth dilution method; format: functional; settings: ATCC 13199, 48 h

SMILES	MIC (Pseudomonas aeruginosa [2]) [µg/mL]	MBC (Bacillus spizizenii [3]) [µg/mL]	MBC (Pseudomonas aeruginosa [4]) [µg/mL]	log K [5]	MBC (Serratia marcescens [6]) [µg/mL]	MIC (Escherichia coli [7]) [µg/mL]	MIC (Enterococcus hirae) [µg/mL]	MIC (Streptococcus pneumoniae) [µg/mL]	MIC (Staphylococcus aureus [8]) [µg/mL]	MBC [10] [µg/mL]	MBC (Staphylococcus aureus [11]) [µg/mL]	MBC (Proteus vulgaris [12]) [µg/mL]	MIC (Proteus vulgaris [13]) [µg/mL]	MBC (Staphylococcus aureus [14]) [µg/mL]	MIC [15] [µg/mL]	MIC (Serratia marcescens [16]) [µg/mL]	MIC (Staphylococcus aureus [17]) [µg/mL]	MBC (Staphylococcus aureus [18]) [µg/mL]	MBC (Escherichia coli [19]) [µg/mL]	MIC (Staphylococcus aureus [20]) [µg/mL]	further results
CC1=CC(C)=C(C(=O)O)C2=N[N+]3(CN12)[C@H](C)CN(c1c(F)c(N)c2c(=O)c(C(=O)O)cn(C4CC4)c2c1F)C[C@@H]3C.[Cl-] (stereo partly drawn)	32	2	> 512	-0.2606	32	4	> 512	> 512	8	4	16	2	1	8	4	32	4	8	4	8	Activity (HEK293 [1]): Non-Toxic; Activity (HEK293 [9]): Non-Toxic; MBC [21]: 16 µg/mL; MIC (Bacillus spizizenii [22]): 2 µg/mL; MIC [23]: 2 µg/mL
CCn1cc(C(=O)O)c(=O)c2cc(F)c(N3CC[N+]4(CC3)CN3C(=N4)C(C(=O)O)=Cc4ccccc43)cc21.[Cl-]	64	16	64	-0.1044	32	4	> 512	> 512	64	64	64	2	2	32	32	32	32	64	4	64	Activity (HEK293 [1]): Non-Toxic; Activity (HEK293 [9]): Non-Toxic; MBC [21]: 32 µg/mL; MIC (Bacillus spizizenii [22]): 16 µg/mL; MIC [23]: 64 µg/mL
CCn1cc(C(=O)O)c(=O)c2cnc(N3CCNCC3)nc21 [PIPEMIDIC ACID]	8 (≈ 26.4 µM)	2 (≈ 6.59 µM)	8 (≈ 26.4 µM)	-0.1697	2 (≈ 6.59 µM)	2 (≈ 6.59 µM)	> 512	> 512	64 (≈ 211 µM)	64 (≈ 211 µM)	128 (≈ 422 µM)	0.004 (≈ 0.0132 µM)	0.004 (≈ 0.0132 µM)	32 (≈ 105 µM)	32 (≈ 105 µM)	2 (≈ 6.59 µM)	32 (≈ 105 µM)	32 (≈ 105 µM)	2 (≈ 6.59 µM)	32 (≈ 105 µM)	MBC [21]: 32 µg/mL (≈ 105 µM); MIC (Bacillus spizizenii [22]): 2 µg/mL (≈ 6.59 µM); MIC [23]: 32 µg/mL (≈ 105 µM)
CCn1cc(C(=O)O)c(=O)c2cc(F)c(N3CC[N+]4(CC3)CN3C(C)=CC(C)=C(C(=O)O)C3=N4)cc21.[Cl-]	256	64	> 512	-0.2721	128	4	> 512	> 512	64	32	128	0.5	0.25	128	64	64	64	128	8	128	Activity (HEK293 [1]): Non-Toxic; Activity (HEK293 [9]): Non-Toxic; MBC [21]: 128 µg/mL; MIC (Bacillus spizizenii [22]): 16 µg/mL; MIC [23]: 32 µg/mL
